From paper PMC6099740, “Design, Synthesis and Biological Evaluation of 6,7-Disubstituted-4-phenoxyquinoline Derivatives Bearing Pyridazinone Moiety as c-Met Inhibitors” (Molecules : A Journal of Synthetic Chemistry and Natural …, 2018)

What was measured:
A549 cells = experiment: MTT cytotoxicity assay, A549; assay type: cell-based; settings: Homo sapiens, 72 h
Procedure: (§1) The results expressed as IC50 values were summarized in Table 1, and the values were the average of at least two independent experiments.
(§2) The cancer cell lines were cultured in minimum essential medium (MEM) supplement with 10% fetal bovine serum (FBS). […] The test compounds at indicated final concentrations were added to the culture medium and the cell cultures were continued for 72 h. […] All of the compounds were tested two times in each of the cell lines. The results expressed as inhibition rates or IC50 (half-maximal inhibitory concentration) were the averages of two determinations and calculated by using the Bacus Laboratories Incorporated Slide Scanner (Bliss) software (the Bacus Laboratories Inc. Slide Scanner (BLISS) system, Lombard, IL, USA)..

HepG2 cells = experiment: MTT cytotoxicity assay, HepG2; assay type: cell-based; settings: Homo sapiens, 72 h
Procedure: as §1
The cancer cell lines were cultured in minimum essential medium (MEM) supplement with 10% fetal bovine serum (FBS). Approximately 4 × 10^3 cells, suspended in MEM medium, were plated onto each well of a 96-well plate and incubated in 5% CO2 at 37 °C for 24 h. The test compounds at indicated final concentrations were added to the culture medium and the cell cultures were continued for 72 h. Fresh MTT was added to each well at a terminal concentration of 5 μg/mL and incubated with cells at 37 °C for 4 h. The formazan crystals were dissolved in 100 μL DMSO each well, and the absorbency at 492 nm (for absorbance of MTT formazan) and 630 nm (for the reference wavelength) was measured with the ELISA reader. All of the compounds were tested two times in each of the cell lines. The results expressed as inhibition rates or IC50 (half-maximal inhibitory concentration) were the averages of two determinations and calculated by using the Bacus Laboratories Incorporated Slide Scanner (Bliss) software (the Bacus Laboratories Inc. Slide Scanner (BLISS) system, Lombard, IL, USA)..

MCF-7 cells = experiment: MTT cytotoxicity assay, MCF-7; assay type: cell-based; settings: Homo sapiens, MCF7, 72 h
Procedure: as §1, §2

c-Met kinase = c-Met kinase (Homo sapiens, UniProt P08581); experiment: c-Met kinase inhibition assay (HTRF; mobility shift)
c-Met kinase, sequence (P08581 25-1390): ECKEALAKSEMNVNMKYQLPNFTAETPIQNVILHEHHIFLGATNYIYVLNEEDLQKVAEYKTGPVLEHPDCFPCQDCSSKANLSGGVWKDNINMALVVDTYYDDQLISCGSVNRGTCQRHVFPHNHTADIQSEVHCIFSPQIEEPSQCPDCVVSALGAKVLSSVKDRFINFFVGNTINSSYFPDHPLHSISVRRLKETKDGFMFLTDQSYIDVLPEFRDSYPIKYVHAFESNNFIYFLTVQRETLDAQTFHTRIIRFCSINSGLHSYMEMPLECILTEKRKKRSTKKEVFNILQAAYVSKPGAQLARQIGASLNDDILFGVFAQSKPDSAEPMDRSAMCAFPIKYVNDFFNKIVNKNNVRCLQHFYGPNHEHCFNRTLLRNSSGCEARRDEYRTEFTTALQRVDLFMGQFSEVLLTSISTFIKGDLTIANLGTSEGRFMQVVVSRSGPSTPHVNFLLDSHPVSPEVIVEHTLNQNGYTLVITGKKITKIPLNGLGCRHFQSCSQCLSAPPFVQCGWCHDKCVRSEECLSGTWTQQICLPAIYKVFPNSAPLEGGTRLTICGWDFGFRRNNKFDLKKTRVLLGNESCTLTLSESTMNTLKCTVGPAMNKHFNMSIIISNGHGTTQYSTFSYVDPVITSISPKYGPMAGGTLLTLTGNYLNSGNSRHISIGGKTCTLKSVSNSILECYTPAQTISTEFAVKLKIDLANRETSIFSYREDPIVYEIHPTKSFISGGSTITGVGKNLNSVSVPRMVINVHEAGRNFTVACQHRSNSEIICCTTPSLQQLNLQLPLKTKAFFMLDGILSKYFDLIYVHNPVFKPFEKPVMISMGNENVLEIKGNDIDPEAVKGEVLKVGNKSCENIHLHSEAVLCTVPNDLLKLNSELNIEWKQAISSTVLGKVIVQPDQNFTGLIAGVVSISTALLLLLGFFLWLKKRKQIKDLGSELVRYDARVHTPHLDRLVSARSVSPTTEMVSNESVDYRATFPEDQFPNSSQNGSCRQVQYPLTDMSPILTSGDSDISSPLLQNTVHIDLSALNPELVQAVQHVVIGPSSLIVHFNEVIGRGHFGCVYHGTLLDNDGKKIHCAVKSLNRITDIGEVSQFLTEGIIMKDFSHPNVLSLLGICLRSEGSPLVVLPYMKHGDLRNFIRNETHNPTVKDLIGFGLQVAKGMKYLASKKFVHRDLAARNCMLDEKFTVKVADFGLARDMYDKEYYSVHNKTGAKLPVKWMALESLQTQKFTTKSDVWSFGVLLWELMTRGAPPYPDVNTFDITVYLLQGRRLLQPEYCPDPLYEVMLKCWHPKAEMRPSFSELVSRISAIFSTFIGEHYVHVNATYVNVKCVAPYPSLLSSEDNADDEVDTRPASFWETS
Procedure: All kinase assays were performed in 96-well plates in a 50 µL reaction volume. The kinase buffer contains 50 mM HEPES, pH 7.5, 10 mM MgCl2, 0.0015% Brij-35 and 2 mM DTT. The stop buffer contains 100 mM HEPES, pH 7.5, 0.015% Brij-35, 0.2% Coating Reagent 3 and 50 mM EDTA. Dilute the compounds to 500 µM by 100% DMSO, then transfer 10 µL of compound to a new 96-well plate as the intermediate plate, add 90 µL kinase buffer to each well. Transfer 5 µL of each well of the intermediate plate to 384-well plates. The following amounts of enzyme and substrate were used per well: kinase base buffer, FAM-labeled peptide, ATP and enzyme solution. Wells containing the substrate, enzyme, DMSO without compound were used as DMSO control. Wells containing just the substrate without enzyme were used as low control. Incubate at room temperature for 10 min. Add 10 µL peptide solution to each well. […] At last collect data on Caliper program and convert conversion values to inhibition values. Percent inhibition = (max − conversion)/(max − min) × 100. ‘max’ stands for DMSO control; ‘min’ stands for low control [20].

| Structure (SMILES) | IC50 (A549 cells) [µM] | IC50 (HepG2 cells) [µM] | IC50 (MCF-7 cells) [µM] | melting point [°C] | IC50 (c-Met kinase) [µM] |
| --- | --- | --- | --- | --- | --- |
| COc1cc2c(Oc3ccc(NC(=O)c4nn(-c5ccc(Br)cc5F)ccc4=O)cc3F)ccnc2cc1OCCCN1CCOCC1 [Compound 27, 1-(4-Bromo-2-fluorophenyl)-N-(3-fluoro-4-((6-methoxy-7-(3-morpholinopropoxy)quinolin-4-yl)oxy)phenyl)-4-oxo-1,4-dihydropyridazine-3-carboxamide] | > 50 | > 50 | > 50 | 113.7 to 115.1 | 0.478 |
| COc1cc2c(Oc3ccc(NC(=O)c4nn(-c5ccc(Cl)c(C(F)(F)F)c5)ccc4=O)cc3F)ccnc2cc1OCCCN1CCOCC1 [Compound 28, 1-(4-Chloro-3-(trifluoromethyl)phenyl)-N-(3-fluoro-4-((6-methoxy-7-(3-morpholinopropoxy)quinolin-4-yl)oxy)phenyl)-4-oxo-1,4-dihydropyridazine-3-carboxamide] | 5.25 ± 0.72 | > 50 | 7.49 ± 0.87 | 203.5 to 204.7 | 0.382 |
| COc1cc2c(Oc3ccc(NC(=O)c4nn(-c5ccccc5)ccc4=O)cc3F)ccnc2cc1OCCCN1CCOCC1 [Compound 29, N-(3-Fluoro-4-((6-methoxy-7-(3-morpholinopropoxy)quinolin-4-yl)oxy)phenyl)-4-oxo-1-phenyl-1,4-dihydropyridazine-3-carboxamide] | 0.2 ± 0.02 | 2.27 ± 0.36 | 0.03 ± 0.01 | 118.7 to 119.8 | 0.016 |
| COc1cc2c(Oc3ccc(NC(=O)c4nn(-c5ccc(F)cc5)ccc4=O)cc3F)ccnc2cc1OCCCN1CCCCC1 [Compound 30, N-(3-Fluoro-4-((6-methoxy-7-(3-(piperidin-1-yl)propoxy)quinolin-4-yl)oxy)phenyl)-1-(4-fluorophenyl)-4-oxo-1,4-dihydropyridazine-3-carboxamide] | 0.31 ± 0.01 | 0.99 ± 0.01 | 0.69 ± 0.02 | 149.4 to 151.1 | 0.017 |
| COc1cc2c(Oc3ccc(NC(=O)c4nn(-c5ccc(Cl)cc5)ccc4=O)cc3F)ccnc2cc1OCCCN1CCCCC1 [Compound 31, 1-(4-Chlorophenyl)-N-(3-fluoro-4-((6-methoxy-7-(3-(piperidin-1-yl)propoxy)quinolin-4-yl)oxy)phenyl)-4-oxo-1,4-dihydropyridazine-3-carboxamide] | 0.57 ± 0.02 | 0.69 ± 0.03 | 1.16 ± 0.06 | 158.2 to 159.6 | 0.078 |
| COc1cc2c(Oc3ccc(NC(=O)c4nn(-c5ccc(Br)cc5)ccc4=O)cc3F)ccnc2cc1OCCCN1CCCCC1 [Compound 32, 1-(4-Bromophenyl)-N-(3-fluoro-4-((6-methoxy-7-(3-(piperidin-1-yl)propoxy)quinolin-4-yl)oxy)phenyl)-4-oxo-1,4-dihydropyridazine-3-carboxamide] | 2.89 ± 0.46 | 1.75 ± 0.24 | 2.45 ± 0.39 | 141.3 to 143.4 | 0.246 |
| COc1ccc(-n2ccc(=O)c(C(=O)Nc3ccc(Oc4ccnc5cc(OCCCN6CCCCC6)c(OC)cc45)c(F)c3)n2)cc1 [Compound 33, N-(3-Fluoro-4-((6-methoxy-7-(3-(piperidin-1-yl)propoxy)quinolin-4-yl)oxy)phenyl)-1-(4-methoxyphenyl)-4-oxo-1,4-dihydropyridazine-3-carboxamide] | 2.78 ± 0.44 | 0.63 ± 0.08 | 2.35 ± 0.37 | 105.4 to 106.5 | 0.056 |
| COc1cc2c(Oc3ccc(NC(=O)c4nn(-c5ccc(F)c(Cl)c5)ccc4=O)cc3F)ccnc2cc1OCCCN1CCCCC1 [Compound 34, 1-(3-Chloro-4-fluorophenyl)-N-(3-fluoro-4-((6-methoxy-7-(3-(piperidin-1-yl)propoxy)quinolin-4-yl)oxy)phenyl)-4-oxo-1,4-dihydropyridazine-3-carboxamide] | 0.36 ± 0.04 | 1.28 ± 0.11 | 0.15 ± 0.04 | 121.7 to 123.4 | 0.002 |
